# Results as given in ChEMBL document CHEMBL1147156, “Structure-based design and synthesis of N(omega)-nitro-L-arginine-containing peptidomimetics as selective inhibitors of neuronal nitric oxide synthase. Displacement of the heme structural water” (J Med Chem, 2007).
# Columns and labels:
# [1] = Inhibition of bovine recombinant neuronal NOS by hemoglobin capture assay; parameters: species or system Bos taurus
# [2] = target: T1, Nitric oxide synthase, inducible (Mus musculus, UniProt P29477); assay: Inhibition of mouse recombinant inducible NOS by hemoglobin capture assay
# T1 sequence (P29477 whole entry): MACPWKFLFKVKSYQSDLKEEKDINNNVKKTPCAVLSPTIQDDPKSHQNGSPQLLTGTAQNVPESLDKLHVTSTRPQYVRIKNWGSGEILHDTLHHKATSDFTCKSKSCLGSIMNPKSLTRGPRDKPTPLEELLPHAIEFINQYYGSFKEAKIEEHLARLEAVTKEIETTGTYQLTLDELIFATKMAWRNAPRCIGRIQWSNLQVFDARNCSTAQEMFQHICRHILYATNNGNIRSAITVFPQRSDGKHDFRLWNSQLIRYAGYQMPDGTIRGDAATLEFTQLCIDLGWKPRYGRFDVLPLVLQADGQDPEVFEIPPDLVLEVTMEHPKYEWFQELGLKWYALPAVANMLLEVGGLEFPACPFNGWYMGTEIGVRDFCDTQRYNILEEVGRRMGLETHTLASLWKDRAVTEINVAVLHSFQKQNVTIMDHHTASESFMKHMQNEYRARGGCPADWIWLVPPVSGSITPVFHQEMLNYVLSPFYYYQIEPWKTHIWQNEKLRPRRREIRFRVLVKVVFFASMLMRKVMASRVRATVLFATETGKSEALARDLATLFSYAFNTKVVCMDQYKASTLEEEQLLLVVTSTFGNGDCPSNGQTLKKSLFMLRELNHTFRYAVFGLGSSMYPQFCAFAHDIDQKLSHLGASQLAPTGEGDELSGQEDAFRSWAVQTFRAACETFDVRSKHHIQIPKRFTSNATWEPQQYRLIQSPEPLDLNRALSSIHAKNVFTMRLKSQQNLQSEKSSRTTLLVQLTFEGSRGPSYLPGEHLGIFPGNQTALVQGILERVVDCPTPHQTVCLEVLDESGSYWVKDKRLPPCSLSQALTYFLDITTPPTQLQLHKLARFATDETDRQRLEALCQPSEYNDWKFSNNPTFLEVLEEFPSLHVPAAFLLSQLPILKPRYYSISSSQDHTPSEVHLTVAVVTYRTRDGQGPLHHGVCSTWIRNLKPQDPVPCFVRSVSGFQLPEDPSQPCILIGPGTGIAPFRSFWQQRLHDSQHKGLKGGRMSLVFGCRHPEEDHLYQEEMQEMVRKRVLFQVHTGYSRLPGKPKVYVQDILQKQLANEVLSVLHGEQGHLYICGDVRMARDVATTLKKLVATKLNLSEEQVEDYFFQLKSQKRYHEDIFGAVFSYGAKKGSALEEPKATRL
# Nitric oxide synthase 3 = target: T2, Nitric oxide synthase 3 (Bos taurus, UniProt P29473); assay: Inhibition of bovine recombinant endothelial NOS by hemoglobin capture assay
# T2 sequence (P29473 whole entry): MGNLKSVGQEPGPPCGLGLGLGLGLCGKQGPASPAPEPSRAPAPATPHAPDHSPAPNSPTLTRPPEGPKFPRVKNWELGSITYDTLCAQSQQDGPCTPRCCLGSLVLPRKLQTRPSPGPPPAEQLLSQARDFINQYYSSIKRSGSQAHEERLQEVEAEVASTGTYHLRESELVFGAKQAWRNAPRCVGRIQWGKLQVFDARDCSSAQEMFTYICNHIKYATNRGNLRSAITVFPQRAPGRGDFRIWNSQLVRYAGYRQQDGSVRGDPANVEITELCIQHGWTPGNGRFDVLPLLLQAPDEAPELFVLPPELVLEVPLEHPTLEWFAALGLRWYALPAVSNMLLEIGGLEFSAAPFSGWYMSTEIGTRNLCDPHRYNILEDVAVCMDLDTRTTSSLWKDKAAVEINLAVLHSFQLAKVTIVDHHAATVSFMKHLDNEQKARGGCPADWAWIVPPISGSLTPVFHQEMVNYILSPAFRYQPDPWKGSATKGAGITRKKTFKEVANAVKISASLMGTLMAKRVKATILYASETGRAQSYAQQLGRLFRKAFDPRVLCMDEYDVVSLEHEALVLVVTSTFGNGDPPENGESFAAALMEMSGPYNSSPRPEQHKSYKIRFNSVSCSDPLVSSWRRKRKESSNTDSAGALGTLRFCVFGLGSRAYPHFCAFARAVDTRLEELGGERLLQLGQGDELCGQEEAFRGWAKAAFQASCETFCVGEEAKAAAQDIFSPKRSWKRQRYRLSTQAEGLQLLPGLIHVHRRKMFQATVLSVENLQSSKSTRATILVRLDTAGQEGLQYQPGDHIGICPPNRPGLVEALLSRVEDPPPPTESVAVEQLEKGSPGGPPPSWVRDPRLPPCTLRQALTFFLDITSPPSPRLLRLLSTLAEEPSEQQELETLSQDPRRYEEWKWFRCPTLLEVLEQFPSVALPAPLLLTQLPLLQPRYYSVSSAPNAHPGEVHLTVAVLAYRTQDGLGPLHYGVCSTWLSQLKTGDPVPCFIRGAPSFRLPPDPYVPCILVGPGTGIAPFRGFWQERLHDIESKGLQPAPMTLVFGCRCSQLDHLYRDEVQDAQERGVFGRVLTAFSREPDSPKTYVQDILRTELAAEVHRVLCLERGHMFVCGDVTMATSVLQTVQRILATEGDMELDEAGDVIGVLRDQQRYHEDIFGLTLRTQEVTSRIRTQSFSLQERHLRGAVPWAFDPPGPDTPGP
smiles,measurement,setting,value
NC(=O)[C@@H]1C[C@@H](NC(=O)[C@@H](N)CCC/N=C(\N)N[N+](=O)[O-])CN1,Ki,[1],0.33 µM
N=C(NCCC[C@H](N)CN(N)CCN)N[N+](=O)[O-],Ki,[1],0.56 µM
same,Ki,[2],37 µM
same,Ki,Nitric oxide synthase 3,103 µM
N=C(NCCC[C@H](N)CN(O)CCN)N[N+](=O)[O-],Ki,[1],0.12 µM
same,Ki,[2],16 µM
same,Ki,Nitric oxide synthase 3,73 µM
N=C(NCCC[C@H](N)C(=O)N(O)[C@H]1CN[C@H](C(N)=O)C1)N[N+](=O)[O-],Ki,[1],0.31 µM
same,Ki,[2],16 µM
same,Ki,Nitric oxide synthase 3,35 µM
N=C(NCCC[C@H](N)C(=O)O)N[N+](=O)[O-] [NITROARGININE],Ki,[2],4.28 µM
